According to patent publication US10477865B2, “Fungicidal compounds and methods of their use” (Auckland UniServices Limited, priority 2009, dated 2019):

How the values were obtained:
[1] = FRAP (ferric reducing antioxidant power) assay; settings: compared with ascorbic acid; data not shown
[2] = tested on: S. sclerotiorum ICMP13844; assay: Agar diffusion assay, inhibition of mycelial growth; type: cell-based, Sclerotinia sclerotiorum; settings: HPLC purified; YPD agar, 25° C., 5 days; data not shown
[3] = tested on: S. cepivorum ICMP10916-91; assay: Inhibition of spore germination; type: cell-based, Sclerotium cepivorum
[4] = tested on: Escherichia coli SVB-B11; assay: Agar diffusion assay, antimicrobial activity; type: cell-based; settings: data not shown
[5] = tested on: P. viticola ICMP5537; assay: Inhibition of spore germination; type: cell-based, Phomopsis viticola
[6] = tested on: Pseudomonas aeruginosa SVB-B10; type: cell-based; settings: agar diffusion; data not shown
[7] = tested on: Staphylococcus epidermis SVB-B12; assay: Agar diffusion assay, antimicrobial activity; type: cell-based; settings: data not shown
[8] = Stability tests (absorbance at 428 nm in different testing solutions); type: physicochemical
Protocol: Stability was determined by re-suspending between 0.3 to 0.5 mg/mL of purified pigmented compound of Formula (IV) in different testing solutions according to Table 1, and measuring the absorbance at 428 nm every 24 hours for fifteen days. The test samples were kept in glass vials under constant incandescent light (except for the temperature stability test).

[9] = tested on: Saccharomyces cerevisiae BM45; assay: Agar diffusion assay, antimicrobial activity; type: cell-based; settings: data not shown
[10] = tested on: B. cinera ICMP16621; assay: Agar diffusion assay, inhibition of mycelial growth; type: cell-based, Botrytis cinera; settings: HPLC purified; YPD agar, 25° C., 5 days; data not shown
[11] = Radical scavenging ability; settings: compared with ascorbic acid; data not shown
[12] = tested on: Candida utilis 02/D00981; assay: Agar diffusion assay, antimicrobial activity; type: cell-based; settings: data not shown
[13] = Phosphomolybdenum antioxidant assay; settings: compared with ascorbic acid; data not shown
[14] = tested on: Candida albicans SC5614; assay: Agar diffusion assay, antimicrobial activity; type: cell-based; settings: data not shown
[15] = Stability tests (absorbance at 428 nm in different testing solutions); type: physicochemical; settings: after 10 days
[16] = tested on: A. alternata ICMP1099-96; assay: Inhibition of spore germination; type: cell-based, Alternaria alternata
[17] = Solubility; type: physicochemical; settings: in water and polar organic solvents such as methanol, and ethanol
[18] = tested on: V. inaequalis ICMP4095-96; assay: Inhibition of spore germination; type: cell-based, Venturia inaequalis
[19] = tested on: B. cinera ICMP16621; assay: Inhibition of spore germination; type: cell-based, Botrytis cinera
[20] = tested on: M. graminicola ICMP12504-95; type: cell-based, Mycosphaerella graminicola
[21] = tested on: S. sclerotiorum ICMP13844; assay: Inhibition of spore germination; type: cell-based, Sclerotinia sclerotiorum
[22] = tested on: A. supraseptata SVB-F2; assay: Agar diffusion assay, inhibition of mycelial growth; type: cell-based, Apiognomonia supraseptata; settings: HPLC purified; YPD agar, 25° C., 5 days; data not shown
[23] = tested on: R. solani ICMP11620; type: cell-based, Rhizoctonia solani
[24] = tested on: M. grisea ICMP14481; type: cell-based, Magnaporthe grisea
[25] = all three concentrations tested: 2.7, 1.3 and 0.7 mg·mL-1
[26] = Stability to common acids: Acetic acid
[27] = Stability to common acids: Malic acid
[28] = Stability to common alkalis: NaHCO3 10% w/w
[29] = Stability to microwave radiation: 5 min, domestic microwave (1000 W)
[30] = Stability to presence of sugars: Sucrose 10% w/w
[31] = Stability to temperature: 4° C. in methanol
[32] = Stability to temperature: 4° C. in water
[33] = Stability to temperature: 60° C. in methanol
[34] = Stability to temperature: 60° C. in water
[35] = Stability to temperature: 100° C. in water
[36] = Stability to temperature: −20° C. in methanol
[37] = Stability to temperature: −20° C. in water

CCC(C)CC(C)/C=C(/C=C(C)/C=C/C=C/C=C/C=C/C=C/C=C/C1=C(C(=O)O)C2OOC(CO)C(O)C(O1)C2O)C(=O)O (single isomer, unassigned) [Compound 1, Epicoccaene]
Antioxidant power by FRAP [1]: comparable to those of ascorbic acid
Activity against mycelial growth (zone of inhibition) [2]: strong activity
Inhibition of spore germination [3, 25]: completely inhibit
minimal inhibition dose (MID) ([3]; spore germination): below 0.7 mg/mL
Antimicrobial activity [4]: No antimicrobial activity
Inhibition of spore germination [5, 25]: completely inhibit
minimal inhibition dose (MID) ([5]; spore germination): below 0.7 mg/mL
Antimicrobial activity [6]: No antimicrobial activity
Antimicrobial activity [7]: No antimicrobial activity
Resistance to temperature and microwave radiation [8]: resistant
Initial absorbance (428 nm) [8, 26]: 1.61
Initial absorbance (428 nm) ([8]; Stability to common acids: Citric acid): 1.53
Final absorbance (428 nm) ([8]; Stability to common acids: Citric acid, after 10 days): 0.51
Initial absorbance (428 nm) ([8]; Stability to common acids: Lactic acid): 1.52
Final absorbance (428 nm) ([8]; Stability to common acids: Lactic acid, after 10 days): 0.68
Initial absorbance (428 nm) [8, 27]: 1.53
Initial absorbance (428 nm) ([8]; Stability to common alkalis: Na2CO3 10% w/w): 2.13
Final absorbance (428 nm) ([8]; Stability to common alkalis: Na2CO3 10% w/w, after 10 days): 2.12
Initial absorbance (428 nm) [8, 28]: 2.08
Initial absorbance (428 nm) ([8]; Stability to common alkalis: NaOH 10% w/w): 2.05
Final absorbance (428 nm) ([8]; Stability to common alkalis: NaOH 10% w/w, after 10 days): 2.04
Initial absorbance (428 nm) ([8]; Stability to light: In ethanol 5% v/v): 2.04
Final absorbance (428 nm) ([8]; Stability to light: In ethanol 5% v/v, after 10 days): 2.04
Initial absorbance (428 nm) ([8]; Stability to light: In methanol): 2.04
Final absorbance (428 nm) ([8]; Stability to light: In methanol, after 10 days): 2.04
Initial absorbance (428 nm) ([8]; Stability to light: In water): 2.05
Final absorbance (428 nm) ([8]; Stability to light: In water, after 10 days): 1.82
Final absorbance (428 nm) [8, 29]: 2.04
Initial absorbance (428 nm) [8, 29]: 2.05
Initial absorbance (428 nm) ([8]; Stability to presence of sugars: Dextrose 10% w/w): 2.08
Final absorbance (428 nm) ([8]; Stability to presence of sugars: Dextrose 10% w/w, after 10 days): 2.08
Initial absorbance (428 nm) ([8]; Stability to presence of sugars: Fructose 10% w/w): 2.02
Final absorbance (428 nm) ([8]; Stability to presence of sugars: Fructose 10% w/w, after 10 days): 2.03
Initial absorbance (428 nm) [8, 30]: 2.08
Final absorbance (428 nm) [8, 31]: 2.03
Initial absorbance (428 nm) [8, 31]: 2.05
Final absorbance (428 nm) [8, 32]: 2.06
Initial absorbance (428 nm) [8, 32]: 2.08
Final absorbance (428 nm) [8, 33]: 2.04
Initial absorbance (428 nm) [8, 33]: 2.05
Final absorbance (428 nm) [8, 34]: 2.06
Initial absorbance (428 nm) [8, 34]: 2.08
Final absorbance (428 nm) [8, 35]: 2.07
Initial absorbance (428 nm) [8, 35]: 2.08
Final absorbance (428 nm) [8, 36]: 2.06
Initial absorbance (428 nm) [8, 36]: 2.05
Final absorbance (428 nm) [8, 37]: 2.07
Initial absorbance (428 nm) [8, 37]: 2.08
Stability under acidic conditions ([8]; acidic conditions, colour changes from bright yellow to pale orange): unstable
Light sensitivity ([8]; dissolved in water at neutral pH): moderate light sensitivity
Resistance to light ([8]; in water at pH 8.0 or higher, in methanol or in sugar solutions (10% w/w)): resistance to light increased
Degradation in solution of organic acids ([8]; organic acids (10% w/w)): pronounced degradation
Final absorbance (428 nm) ([8]; pH stability, pH 3, after 10 days, constant incandescent light): 1.45
Initial absorbance (428 nm) ([8]; pH stability, pH 3, constant incandescent light): 1.46
Final absorbance (428 nm) ([8]; pH stability, pH 5, after 10 days, constant incandescent light): 1.67
Initial absorbance (428 nm) ([8]; pH stability, pH 5, constant incandescent light): 1.67
Final absorbance (428 nm) ([8]; pH stability, pH 7, after 10 days, constant incandescent light): 2.05
Initial absorbance (428 nm) ([8]; pH stability, pH 7, constant incandescent light): 2.05
Final absorbance (428 nm) ([8]; pH stability, pH 8, after 10 days, constant incandescent light): 2.08
Initial absorbance (428 nm) ([8]; pH stability, pH 8, constant incandescent light): 2.09
Final absorbance (428 nm) ([8]; pH stability, pH 10, after 10 days, constant incandescent light): 2.09
Initial absorbance (428 nm) ([8]; pH stability, pH 10, constant incandescent light): 2.09
Antimicrobial activity [9]: No antimicrobial activity
Activity against mycelial growth (zone of inhibition) [10]: strong activity
Radical scavenging ability [11]: comparable to those of ascorbic acid
Antimicrobial activity [12]: No antimicrobial activity
Antioxidant power by phosphomolybdenum assay [13]: comparable to those of ascorbic acid
Antimicrobial activity [14]: No antimicrobial activity
Final absorbance (428 nm) [15, 26]: 0.66
Final absorbance (428 nm) [15, 27]: 0.38
Final absorbance (428 nm) [15, 28]: 2.08
Final absorbance (428 nm) [15, 30]: 2.07
Inhibition of spore germination [16, 25]: completely inhibit
minimal inhibition dose (MID) ([16]; spore germination): below 0.7 mg/mL
Solubility [17]: readily soluble
Inhibition of spore germination [18, 25]: completely inhibit
minimal inhibition dose (MID) ([18]; spore germination): below 0.7 mg/mL
Inhibition of spore germination [19, 25]: completely inhibit
Inhibition of spore germination ([19]; incubation in rich culture medium for 10 days, data not shown): completely inhibit
minimal inhibition dose (MID) ([19]; spore germination): below 0.7 mg/mL
Inhibition of spore germination [20]: resistant
Inhibition of spore germination [21, 25]: completely inhibit
minimal inhibition dose (MID) ([21]; spore germination): below 0.7 mg/mL
Activity against mycelial growth (zone of inhibition) [22]: strong activity
minimal inhibition dose (MID) [23]: below 0.7 mg/mL
Inhibition of spore germination [23, 25]: completely inhibit
Inhibition of spore germination [24, 25]: completely inhibit
minimal inhibition dose (MID) ([24]; spore germination): below 0.7 mg/mL
